From patent publication US8969299B2, “Therapeutic agents for regulating serum phosphorus” (KAI Pharmaceuticals, Inc., priority 2011, dated 2015)
Blank lines part the entries; values can stand above or below the compound they belong to. Peptide text beside a SMILES is read from it.

Assays:
human CaSR = target: T1, human CaSR (Homo sapiens, UniProt P41180); assay: IP1 production in HEK293 cells that express the human CaSR; format: cell-based; details: HEK 293 cells
T1 construct: expressed in transfected cells; host or cells: HEK293
T1 sequence (P41180 20-1078): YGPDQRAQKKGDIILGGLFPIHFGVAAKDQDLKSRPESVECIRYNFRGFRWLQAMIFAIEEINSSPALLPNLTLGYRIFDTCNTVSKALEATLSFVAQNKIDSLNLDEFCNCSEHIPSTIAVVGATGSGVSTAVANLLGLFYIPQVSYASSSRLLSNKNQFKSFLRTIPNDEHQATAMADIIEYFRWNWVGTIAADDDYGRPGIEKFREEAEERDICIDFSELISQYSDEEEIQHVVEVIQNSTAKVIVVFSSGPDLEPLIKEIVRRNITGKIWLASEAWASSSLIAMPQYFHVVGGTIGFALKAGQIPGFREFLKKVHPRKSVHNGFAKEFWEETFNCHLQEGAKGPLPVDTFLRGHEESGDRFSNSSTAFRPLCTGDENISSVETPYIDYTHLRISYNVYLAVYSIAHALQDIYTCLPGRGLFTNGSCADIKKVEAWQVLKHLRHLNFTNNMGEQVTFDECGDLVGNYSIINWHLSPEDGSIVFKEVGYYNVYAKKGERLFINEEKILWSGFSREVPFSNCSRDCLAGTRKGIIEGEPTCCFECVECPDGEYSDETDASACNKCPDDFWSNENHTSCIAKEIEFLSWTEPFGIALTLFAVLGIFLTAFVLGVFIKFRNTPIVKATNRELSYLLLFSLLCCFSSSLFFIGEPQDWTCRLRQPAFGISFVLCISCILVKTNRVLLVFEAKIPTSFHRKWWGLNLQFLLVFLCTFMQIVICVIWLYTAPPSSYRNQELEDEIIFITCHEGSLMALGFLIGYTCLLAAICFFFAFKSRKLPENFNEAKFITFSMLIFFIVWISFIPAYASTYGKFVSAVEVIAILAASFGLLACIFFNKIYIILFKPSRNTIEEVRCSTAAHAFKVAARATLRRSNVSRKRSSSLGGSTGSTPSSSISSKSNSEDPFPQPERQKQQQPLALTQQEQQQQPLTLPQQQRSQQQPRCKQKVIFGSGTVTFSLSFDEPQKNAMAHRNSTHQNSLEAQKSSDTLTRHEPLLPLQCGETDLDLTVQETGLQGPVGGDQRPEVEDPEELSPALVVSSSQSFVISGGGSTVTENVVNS

normal rats = assay: PTH reduction in vivo in normal rats; parameters: species or system rat; details: for decrease in percent PTH: after a single IV administration in normal rats
Experimental: The data illustrate that cationic and uncharged residues at different positions are not all equal and there are changes in activity as a result of change in the compound structure.
The structure-activity relationship of the thiol-containing group in the X1 subunit of the compound was further analyzed by preparing compounds with differing X1 subunits. The compounds, were tested in vivo in normal rats for activity to reduce PTH. The data illustrated that the thiol-containing X1 subunit can be varied. Compounds with the following in the N-terminal residue were tested—D-cysteine (cys), D-penicillamine (dPen), d-homocysteine (dHcy) and mercaptopropionic acid (Mpa). In addition, a natural or non-natural amino acid, such as beta alanine, can be conjugated to the N-terminal thiol-containing residue. The data illustrated that cationic compounds such as […] (SEQ ID NO:6) containing different thiol-containing groups in the X1 subunit effectively reduce PTH in vivo.
In another study of the structure activity relationship, the contribution of non-cationic amino acids to the potency of the peptides was evaluated by preparing a series of peptides with various D-amino acid residues or glycine or with sterically-hindered non-natural amino acids, substituted at various positions in the peptide Ac-carrrar-NH2 (SEQ ID NO:26) and in the peptide Ac-crrarar-NH2 (SEQ ID NO:153). The peptides were administered as an IV bolus to normal Sprague Dawley rats at a dose of 0.5 mg/kg. An intravenous (IV) bolus of saline was used as a control. Plasma PTH levels were assessed prior to dosing and 1, 2, 3 and 4 hours after dosing.

1K1C model animals = assay: plasma PTH reduction after 30-minute IV infusion in 1K1C model animals; format: in vivo; details: 3 mg/kg; for effect on plasma PTH: 30-minute IV infusion; for mean PTH reduction: 24 hour time point
Source text: These compounds include (i) Ac-crrrr-NH2 (SEQ ID NO:4), (ii) Ac-crrrrr-NH2 (SEQ ID NO:5), (iii) Ac-crrrrrr-NH2 (SEQ ID NO:6), and (iv) Ac-crrrrrrr-NH2 (SEQ ID NO:7). In previous studies, the compounds identified as SEQ ID NO:4, SEQ ID NO:5, SEQ ID NO:6 and SEQ ID NO:7 were each administered by a 30-minute IV infusion to 1K1C model animals and effected a reduction in plasma PTH levels as a percent of the pre-dosing (baseline) level. […] These latter two compounds produced a mean PTH reduction of ˜40% and 60% at the 24 hour time point, respectively. It should be noted that the compounds in this study were administered at the same mg/kg dose but, due to differences in molecular weight, a different number of moles of each compound was actually dosed.

PTH blood concentration = assay: in vivo PTH-lowering activity (species not stated)
Experimental: The contribution of the thiol-containing group in the X1 subunit of the compound (e.g., in certain embodiments where the compound is a peptide on the N-terminal residue), was also investigated in an in vivo study. The PTH-lowering activity of the peptides identified as SEQ ID NO:26 (Ac-carrrar-NH2) and as SEQ ID NO:29 (Ac-arrrar-NH2) was evaluated in vivo.

- reduction in in vitro potency relative to Ac-crrrrrr-NH2 (SEQ ID NO:6) (human CaSR): 5-10 fold
Structure (SMILES): CC(=O)N[C@H](CS)C(=O)N[C@H](CCCNC(=N)N)C(=O)N[C@H](CCCNC(=N)N)C(=O)N[C@H](CCCNC(=N)N)C(=O)N[C@H](C)C(=O)N[C@H](CCCNC(=N)N)C(=O)N[C@H](CCCNC(=N)N)C(N)=O [SEQ ID NO: 11, Ac-crrrarr-NH2] (HELM PEPTIDE1{[ac].[dC].[dR].[dR].[dR].[dA].[dR].[dR].[am]}$$$$V2.0)
- in vivo percent PTH AUC reduction (normal rats; single IV administration): 45%

Structure (SMILES): CC(=O)N[C@H](CS)C(=O)N[C@H](CCCNC(=N)N)C(=O)N[C@H](CCCNC(=N)N)C(=O)N[C@H](CCCNC(=N)N)C(=O)N[C@H](CCCNC(=N)N)C(=O)N[C@H](CCCNC(=N)N)C(=O)N[C@H](CCCNC(=N)N)C(N)=O [SEQ ID NO: 6, Ac-crrrrrr-NH2]
- effect on plasma PTH (1K1C model animals): significant drop in plasma PTH
- mean PTH reduction (1K1C model animals): ~40%
- decrease in percent PTH (normal rats): below the detection limit or essentially zero
- in vivo activity in comparison (PTH blood concentration; compared with SEQ ID NO:41): greater and more prolonged activity than Ac-crrrrrrrr-NH2 (SEQ ID NO:41)

Structure (SMILES): CC(=O)N[C@H](CS)C(=O)N[C@H](C)C(=O)N[C@H](CCCNC(=N)N)C(=O)N[C@H](CCCNC(=N)N)C(=O)N[C@H](CCCNC(=N)N)C(=O)N[C@H](CCCNC(=N)N)C(=O)N[C@H](CCCNC(=N)N)C(N)=O [SEQ ID NO: 8, Ac-carrrrr-NH2] (HELM PEPTIDE1{[ac].[dC].[dA].[dR].[dR].[dR].[dR].[dR].[am]}$$$$V2.0)
- decrease in percent PTH (normal rats): below the detection limit or essentially zero

Structure (SMILES): CC(=O)N[C@H](CS)C(=O)N[C@H](CCCNC(=N)N)C(=O)N[C@H](CCCNC(=N)N)C(=O)N[C@H](CCCNC(=N)N)C(=O)N[C@H](CCCNC(=N)N)C(=O)N[C@H](CCCNC(=N)N)C(N)=O [SEQ ID NO: 5, Ac-crrrrr-NH2] (HELM PEPTIDE1{[ac].[dC].[dR].[dR].[dR].[dR].[dR].[am]}$$$$V2.0)
- effect on plasma PTH (1K1C model animals): significant drop in plasma PTH
- mean PTH reduction (1K1C model animals): 60%

- reduction in in vitro potency relative to Ac-crrrrrr-NH2 (SEQ ID NO:6) (human CaSR): −3 fold
Structure (SMILES): CC(=O)N[C@H](CS)C(=O)N[C@H](C)C(=O)N[C@H](CCCNC(=N)N)C(=O)N[C@H](CCCNC(=N)N)C(=O)N[C@H](CCCNC(=N)N)C(=O)N[C@H](C)C(=O)N[C@H](CCCNC(=N)N)C(N)=O [SEQ ID NO: 26, Ac-carrrar-NH2]
- ability to activate the CaSR in vitro, in words (human CaSR): retained much of the potency seen with Ac-crrrrrr-NH2 (SEQ ID NO:6)
- PTH blood concentration (PTH blood concentration; 0.5 mg/kg dose): decreased PTH blood concentration to a non-detectable level for up to 4 hours after dosing

Structure (SMILES): CC(=O)N[C@H](CS)C(=O)N[C@H](CCCNC(=N)N)C(=O)N[C@H](CCCNC(=N)N)C(=O)N[C@H](C)C(=O)N[C@H](CCCNC(=N)N)C(=O)N[C@H](CCCNC(=N)N)C(=O)N[C@H](CCCNC(=N)N)C(N)=O [SEQ ID NO: 10, Ac-crrarrr-NH2] (HELM PEPTIDE1{[ac].[dC].[dR].[dR].[dA].[dR].[dR].[dR].[am]}$$$$V2.0)
- decrease in percent PTH (normal rats): below the detection limit or essentially zero

Structure (SMILES): CC(=O)N[C@H](CS)C(=O)N[C@H](CCCNC(=N)N)C(=O)N[C@H](CCCNC(=N)N)C(=O)N[C@H](CCCNC(=N)N)C(=O)N[C@H](CCCNC(=N)N)C(=O)N[C@H](CCCNC(=N)N)C(=O)N[C@H](CCCNC(=N)N)C(=O)N[C@H](CCCNC(=N)N)C(=O)N[C@H](CCCNC(=N)N)C(N)=O [SEQ ID NO: 41, Ac-crrrrrrrr-NH2] (HELM PEPTIDE1{[ac].[dC].[dR].[dR].[dR].[dR].[dR].[dR].[dR].[dR].[am]}$$$$V2.0)
- ability to activate the CaSR in vitro, in words (human CaSR): more potent at activating the CaSR

Structure (SMILES): CC(=O)N[C@H](C)C(=O)N[C@H](CCCNC(=N)N)C(=O)N[C@H](CCCNC(=N)N)C(=O)N[C@H](CCCNC(=N)N)C(=O)N[C@H](C)C(=O)N[C@H](CCCNC(=N)N)C(N)=O [SEQ ID NO: 29, Ac-arrrar-NH2] (HELM PEPTIDE1{[ac].[dA].[dR].[dR].[dR].[dA].[dR].[am]}$$$$V2.0)
- ability to activate the CaSR in vitro, in words (human CaSR): dramatically reduced the ability of the compound to activate the CaSR
- PTH concentration (PTH blood concentration; 9 mg/kg dose): did not reduce PTH concentration

Structure (SMILES): CC(=O)N[C@H](CS)C(=O)N[C@H](CCCNC(=N)N)C(=O)N[C@H](CCCNC(=N)N)C(=O)N[C@H](CCCNC(=N)N)C(=O)N[C@H](CCCNC(=N)N)C(=O)N[C@H](CCCNC(=N)N)C(=O)N[C@H](CCCNC(=N)N)C(=O)N[C@H](CCCNC(=N)N)C(N)=O [SEQ ID NO: 7, Ac-crrrrrrr-NH2] (HELM PEPTIDE1{[ac].[dC].[dR].[dR].[dR].[dR].[dR].[dR].[dR].[am]}$$$$V2.0)
- effect on plasma PTH (1K1C model animals): significant drop in plasma PTH

- decrease in potency relative to Ac-carrrar-NH2 (SEQ ID NO:26) (human CaSR): < 4 fold
- reduction in in vitro potency relative to Ac-crrrrrr-NH2 (SEQ ID NO:6) (human CaSR): 10 fold
Structure (SMILES): CC(=O)N[C@@H](CS)C(=O)N[C@H](C)C(=O)N[C@@H](CCCNC(=N)N)C(=O)N[C@H](CCCNC(=N)N)C(=O)N[C@@H](CCCNC(=N)N)C(=O)N[C@H](C)C(=O)N[C@@H](CCCNC(=N)N)C(N)=O [SEQ ID NO: 44, Ac-CaRrRaR-NH2]

Structure (SMILES): CC(=O)N[C@H](CS)C(=O)N[C@H](C)C(=O)N[C@H](CCCNC(=N)N)C(=O)N[C@H](C)C(=O)N[C@H](CCCNC(=N)N)C(=O)N[C@H](CCCNC(=N)N)C(=O)N[C@H](CCCNC(=N)N)C(N)=O [SEQ ID NO: 15, Ac-cararrr-NH2] (HELM PEPTIDE1{[ac].[dC].[dA].[dR].[dA].[dR].[dR].[dR].[am]}$$$$V2.0)
- ability to activate the CaSR in vitro, in words (human CaSR): significantly reduced potency in vitro in activating the CaSR
